Measured values as given in ChEMBL document CHEMBL5113521, “Discovery of a Novel Oral Proteasome Inhibitor to Block NLRP3 Inflammasome Activation with Anti-inflammation Activity” (J Med Chem, 2022).
Active and inactive are the calls of the source. No cut-off for these calls is given here.

Columns and labels:
Mus musculus [1] = assay: Anti-colitis activity against DSS-induced ulcerative colitis C57BL/6J mouse assessed as reduction in colon length decrease at 0.125 to 0.5 mg/kg, po administered every 72 hrs for 10 days; assay type: functional, organism-based; conditions: dose 0.125-0.5 mg/kg, time 10.0 day
Mus musculus [2] = assay: Anti-colitis activity against DSS-induced ulcerative colitis C57BL/6J mouse model assessed as suppression of DSS induced weight loss at 0.125 to 0.5 mg/kg, po administered every 72 hrs for 10 days; assay type: functional, organism-based; conditions: dose 0.125-0.5 mg/kg, time 10.0 day
[3] = molecular target: NACHT, LRR and PYD domains-containing protein 3 (Mus musculus) (UniProt Q8R4B8); assay: Inhibition of NLRP3 inflammasome activation in LPS-primed mouse J774.A1 cells assessed as reduction in IL-1beta secretion preincubated for 1 hr followed by nigericin stimulation and measured after 1 hr by ELISA; assay type: cell-based; conditions: time 2.0 hrs, DDE = dose-dependent effect
Chain of NACHT, LRR and PYD domains-containing protein 3 (Mus musculus) (Q8R4B8 whole entry, the tested form may be a part): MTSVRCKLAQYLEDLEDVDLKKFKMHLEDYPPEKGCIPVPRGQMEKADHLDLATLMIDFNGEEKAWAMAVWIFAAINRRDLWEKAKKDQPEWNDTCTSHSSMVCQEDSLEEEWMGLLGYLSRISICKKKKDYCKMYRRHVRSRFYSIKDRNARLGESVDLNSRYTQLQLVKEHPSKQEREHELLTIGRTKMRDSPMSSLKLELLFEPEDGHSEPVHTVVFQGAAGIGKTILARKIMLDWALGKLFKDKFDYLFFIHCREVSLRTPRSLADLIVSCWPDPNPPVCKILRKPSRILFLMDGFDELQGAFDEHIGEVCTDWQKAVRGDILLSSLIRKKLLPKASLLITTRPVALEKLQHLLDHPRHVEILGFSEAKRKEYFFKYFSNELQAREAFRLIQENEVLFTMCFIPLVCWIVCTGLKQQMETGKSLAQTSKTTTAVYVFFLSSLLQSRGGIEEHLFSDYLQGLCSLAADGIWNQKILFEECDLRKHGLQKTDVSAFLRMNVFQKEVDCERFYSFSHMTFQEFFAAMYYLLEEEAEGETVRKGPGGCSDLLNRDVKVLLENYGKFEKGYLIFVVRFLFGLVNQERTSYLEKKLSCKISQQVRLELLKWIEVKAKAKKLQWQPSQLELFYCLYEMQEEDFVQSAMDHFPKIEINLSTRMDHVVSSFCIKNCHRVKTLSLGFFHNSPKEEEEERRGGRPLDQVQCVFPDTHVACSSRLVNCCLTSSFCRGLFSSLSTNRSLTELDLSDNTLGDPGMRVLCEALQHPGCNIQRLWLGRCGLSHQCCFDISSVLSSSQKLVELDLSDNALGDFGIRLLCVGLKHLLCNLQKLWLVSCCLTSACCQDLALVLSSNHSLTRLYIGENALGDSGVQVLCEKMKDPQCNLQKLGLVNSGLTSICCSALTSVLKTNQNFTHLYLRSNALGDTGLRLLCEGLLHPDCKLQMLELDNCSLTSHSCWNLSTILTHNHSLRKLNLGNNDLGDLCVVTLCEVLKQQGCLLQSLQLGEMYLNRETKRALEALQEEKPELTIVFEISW

[4] = molecular target: T1, Proteasome Macropain subunit MB1 (Homo sapiens, UniProt P28074); assay: Inhibition of 20S proteasome beta5 subunit (unknown origin) using Suc-LLVY-AMC as flurogenic substrate measured after 1 hr by fluorescence based analysis; conditions: read-out: IC50
T1 sequence (P28074 whole entry): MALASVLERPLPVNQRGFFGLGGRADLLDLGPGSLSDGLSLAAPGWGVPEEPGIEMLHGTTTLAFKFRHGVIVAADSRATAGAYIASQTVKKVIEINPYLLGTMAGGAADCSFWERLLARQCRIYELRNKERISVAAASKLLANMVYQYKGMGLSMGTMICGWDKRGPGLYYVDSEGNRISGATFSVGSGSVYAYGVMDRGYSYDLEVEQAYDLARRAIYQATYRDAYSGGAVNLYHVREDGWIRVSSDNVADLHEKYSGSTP

[5] = Cytotoxicity against HEK293 cells incubated for 24 hrs; assay type: toxicity, cell-based; conditions: human
HEK293 = assay: Cytotoxicity against HEK293 cells at less than 20 uM incubated for 24 hrs; assay type: toxicity, cell-based; conditions: human, hek293, 24 h
[6] = molecular target: NACHT, LRR and PYD domains-containing protein 3 (Mus musculus) (UniProt Q8R4B8); assay: Inhibition of NLRP3 inflammasome activation in LPS-primed mouse BMDM cells assessed as reduction in IL-1 beta release preincubated for 1 hr followed by nigericin stimulation and measured after 1 hr by ELISA; assay type: cell-based; conditions: dose 7.5-60 nM, time 2.0 hrs, DDE = dose-dependent effect
[7] = molecular target: NLR family CARD domain-containing protein 4 (Mus musculus) (UniProt Q3UP24); assay: Inhibition of NLRC4 inflammasome activation in LPS-primed mouse BMDM cells assessed as reduction in IL-1beta secretion at 7.5 to 60 nM preincubated for 1 hr followed by FLA-ST Ultrapure stimulation by ELISA; assay type: cell-based; conditions: dose 7.5-60 nM
Chain of NLR family CARD domain-containing protein 4 (Mus musculus) (Q3UP24 whole entry, the tested form may be a part): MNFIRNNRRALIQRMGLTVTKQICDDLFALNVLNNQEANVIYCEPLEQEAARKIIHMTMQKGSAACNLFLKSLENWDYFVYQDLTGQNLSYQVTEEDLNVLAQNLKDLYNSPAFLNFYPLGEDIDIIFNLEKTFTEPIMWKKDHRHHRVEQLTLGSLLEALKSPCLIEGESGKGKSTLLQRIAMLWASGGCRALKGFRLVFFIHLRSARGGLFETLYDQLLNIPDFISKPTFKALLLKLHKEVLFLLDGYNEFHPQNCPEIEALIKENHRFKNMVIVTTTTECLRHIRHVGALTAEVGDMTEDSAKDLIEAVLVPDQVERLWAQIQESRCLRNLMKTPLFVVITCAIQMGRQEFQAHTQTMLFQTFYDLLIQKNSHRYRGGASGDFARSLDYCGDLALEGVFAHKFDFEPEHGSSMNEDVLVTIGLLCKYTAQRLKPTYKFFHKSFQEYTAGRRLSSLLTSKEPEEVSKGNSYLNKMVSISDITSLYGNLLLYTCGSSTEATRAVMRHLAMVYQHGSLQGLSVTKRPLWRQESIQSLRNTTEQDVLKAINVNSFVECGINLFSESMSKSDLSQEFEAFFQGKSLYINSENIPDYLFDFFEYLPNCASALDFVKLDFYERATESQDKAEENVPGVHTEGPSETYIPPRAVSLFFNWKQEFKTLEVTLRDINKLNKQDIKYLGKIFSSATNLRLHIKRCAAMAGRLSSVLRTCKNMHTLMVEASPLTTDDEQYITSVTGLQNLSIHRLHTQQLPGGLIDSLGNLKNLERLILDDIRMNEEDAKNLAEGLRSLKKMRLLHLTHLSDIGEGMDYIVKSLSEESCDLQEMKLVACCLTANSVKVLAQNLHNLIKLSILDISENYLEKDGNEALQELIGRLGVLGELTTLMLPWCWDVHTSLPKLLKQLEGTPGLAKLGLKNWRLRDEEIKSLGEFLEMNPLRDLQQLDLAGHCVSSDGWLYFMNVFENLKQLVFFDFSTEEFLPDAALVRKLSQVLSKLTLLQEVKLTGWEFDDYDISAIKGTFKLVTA

[8] = molecular target: NLR family CARD domain-containing protein 4 (Mus musculus) (UniProt Q3UP24); assay: Inhibition of NLRC4 inflammasome activation in LPS-primed mouse BMDM cells assessed as reduction in IL-1beta secretion at 7.5 to 60 nM preincubated for 1 hr followed by poly (dA/dT) stimulation by ELISA; assay type: cell-based; conditions: dose 7.5-60 nM
[9] = molecular target: T2, Interferon-inducible protein AIM2 (Mus musculus) (UniProt Q91VJ1); assay: Inhibition of AIM2 inflammasome activation in LPS-primed mouse BMDM cells assessed as reduction in IL-1beta secretion at 7.5 to 60 nM preincubated for 1 hr followed by poly (dA/dT) stimulation by ELISA; assay type: cell-based; conditions: dose 7.5-60 nM
T2 sequence (whole entry): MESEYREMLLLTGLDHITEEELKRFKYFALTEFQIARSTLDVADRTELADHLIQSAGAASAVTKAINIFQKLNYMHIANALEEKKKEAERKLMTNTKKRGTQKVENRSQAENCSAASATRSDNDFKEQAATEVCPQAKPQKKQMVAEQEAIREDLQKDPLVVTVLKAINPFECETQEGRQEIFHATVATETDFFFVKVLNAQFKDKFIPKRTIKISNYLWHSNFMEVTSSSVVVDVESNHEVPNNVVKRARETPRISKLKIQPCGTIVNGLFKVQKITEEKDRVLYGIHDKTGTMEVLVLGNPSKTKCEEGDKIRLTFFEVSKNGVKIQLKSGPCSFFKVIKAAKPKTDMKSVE

[10] = molecular target: NACHT, LRR and PYD domains-containing protein 3 (Mus musculus) (UniProt Q8R4B8); assay: Inhibition of NLRP3 inflammasome activation in LPS-primed mouse J774.A1 cells assessed as inhibition of IL-1 beta release in supernatant preincubated for 1 hr followed by nigericin stimulation measured after 1 hr by Western blot analysis; assay type: cell-based; conditions: dose 7.5-60 nM, time 2.0 hrs, DDE = dose-dependent effect
[11] = molecular target: NACHT, LRR and PYD domains-containing protein 3 (Mus musculus) (UniProt Q8R4B8); assay: Inhibition of NLRP3 inflammasome activation in LPS-stimulated mouse J774.A1 cells assessed as increase in polyubiquitinated NLRP3 preincubated for 1 hr followed by nigericin stimulation measured after 1 hr by immunoblot analysis; assay type: cell-based; conditions: dose 7.5-60 nM, time 2.0 hrs, DDE = dose-dependent effect
[12] = molecular target: NACHT, LRR and PYD domains-containing protein 3 (Mus musculus) (UniProt Q8R4B8); assay: Inhibition of NLRP3 inflammasome activation in LPS-stimulated mouse J774.A1 cells assessed as increase in Cbl-b expression at 30 to 100 nM preincubated for 1 hr followed by nigericin stimulation measured after 1 hr by immunoblot analysis; assay type: cell-based; conditions: dose 30-100 nM, time 2.0 hrs
J774.A1 [13] = assay: Inhibition of NF-kappaB in LPS treated mouse J774.A1 cells assessed as reduction in p65 level at 60 nM incubated for 1 hr followed by LPS stimulation measured after 5 hrs by Western blot analysis; assay type: cell-based; conditions: time 6.0 hrs
J774.A1 [14] = assay: Inhibition of NF-kappaB in LPS treated mouse J774.A1 cells assessed as reduction in phosphorylated p65 level at 60 nM incubated for 1 hr followed by LPS stimulation measured after 5 hrs by Western blot analysis; assay type: cell-based; conditions: time 6.0 hrs
J774.A1 [15] = assay: Inhibition of NF-kappaB in LPS treated mouse J774.A1 cells assessed as reduction in NLRP3 level at 60 nM incubated for 1 hr followed by LPS stimulation measured after 5 hrs by Western blot analysis; assay type: cell-based; conditions: time 6.0 hrs
[16] = Half life in Sprague-Dawley rat at 0.5 mg/kg, iv measured upto 24 hrs by liquid chromatography tandem mass spectrometry; assay type: ADME, organism-based; conditions: in vivo
[17] = Half life in Sprague-Dawley rat at 1 mg/kg, po measured upto 24 hrs by liquid chromatography tandem mass spectrometry; assay type: ADME, organism-based; conditions: in vivo
[18] = Tmax in Sprague-Dawley rat at 1 mg/kg, po measured upto 24 hrs by liquid chromatography tandem mass spectrometry; assay type: ADME, organism-based; conditions: in vivo
[19] = Cmax in Sprague-Dawley rat at 0.5 mg/kg, iv measured upto 24 hrs by liquid chromatography tandem mass spectrometry; assay type: ADME, organism-based; set-up: time < 24 hrs, dose 0.5 mg/kg, route iv; conditions: in vivo
[20] = Apparent volume of distribution in Sprague-Dawley rat at 0.5 mg/kg, iv measured upto 24 hrs by liquid chromatography tandem mass spectrometry; assay type: ADME, organism-based; conditions: in vivo, read-out: Vz
Mus musculus [21] = assay: Protection against DSS-induced acute colitis in C57BL/6 mouse model assessed as improvement in inflammatory cell infiltration at 0.125 to 0.5 mg/kg, po administered for 10 days by Hematoxylin and eosin staining based analysis; assay type: functional, organism-based; conditions: dose 0.125-0.5 mg/kg, time 10.0 day
Mus musculus [22] = assay: Protection against DSS-induced acute colitis in C57BL/6 mouse model assessed as improvement in goblet cell depletion at 0.125 to 0.5 mg/kg, po administered for 10 days by Hematoxylin and eosin staining based analysis; assay type: functional, organism-based; conditions: dose 0.125-0.5 mg/kg, time 10.0 day
Mus musculus [23] = assay: Protection against DSS-induced acute colitis in C57BL/6 mouse model assessed as improvement in loss of crypt architecture at 0.125 to 0.5 mg/kg, po administered for 10 days by Hematoxylin and eosin staining based analysis; assay type: functional, organism-based; conditions: dose 0.125-0.5 mg/kg, time 10.0 day

inhibition [3]: Dde
IC50 [4]: 3.7 nM
inhibition [6]: Dde
inhibition [7]: Active
inhibition [8]: Active
inhibition [9]: Active
inhibition [10]: Dde
Activity [11]: Dde
Activity [12]: Active
t1/2 [16]: 4.73 h
t1/2 [17]: 8.36 h
Tmax [18]: 0.25 h
Cmax [19]: 377 ng/mL
Vd [20]: 7.7 L/kg
SMILES: CC(C)C[C@H](NC(=O)[C@H](Cc1ccccc1)NC(=O)c1c(F)cccc1F)B(O)O
Activity (Mus musculus [1]): Active
Activity (Mus musculus [2]): Active
IC50 at 24 h [5]: < 79.4 nM
Activity (HEK293): Non-Toxic
inhibition (J774.A1 [13]): Active
inhibition (J774.A1 [14]): Active
inhibition (J774.A1 [15]): Active
Activity (Mus musculus [21]): Active
Activity (Mus musculus [22]): Active
Activity (Mus musculus [23]): Active
